Source: PMC4746387, “A Bioactivity-Based Method for Screening, Identification of Lipase Inhibitors, and Clarifying the Effects of Processing Time on Lipase Inhibitory Activity of Polygonum Multiflorum” (Evidence-based Complementary and Alternative Medicine : eCAM, 2016)
Like-named read-outs stand apart in the source and are kept apart here.

Tests used:
lipase [1] = biological target: T1, lipase (Sus scrofa, UniProt P00591); test: Assay for lipase inhibitory activity (4-methylumbelliferyl oleate substrate, fluorescence of 4-methylumbelliferone); format: biochemical; conditions: for lipase inhibition ratio: at the concentration of 1.0 mg/mL; for IC50: reference standards (purity > 98%), eight diluted concentrations, 25°C, 20 min
T1 construct: purchased Solar Bio Science Co. Ltd. (Beijing, China) L3126
T1 sequence (P00591 1-450): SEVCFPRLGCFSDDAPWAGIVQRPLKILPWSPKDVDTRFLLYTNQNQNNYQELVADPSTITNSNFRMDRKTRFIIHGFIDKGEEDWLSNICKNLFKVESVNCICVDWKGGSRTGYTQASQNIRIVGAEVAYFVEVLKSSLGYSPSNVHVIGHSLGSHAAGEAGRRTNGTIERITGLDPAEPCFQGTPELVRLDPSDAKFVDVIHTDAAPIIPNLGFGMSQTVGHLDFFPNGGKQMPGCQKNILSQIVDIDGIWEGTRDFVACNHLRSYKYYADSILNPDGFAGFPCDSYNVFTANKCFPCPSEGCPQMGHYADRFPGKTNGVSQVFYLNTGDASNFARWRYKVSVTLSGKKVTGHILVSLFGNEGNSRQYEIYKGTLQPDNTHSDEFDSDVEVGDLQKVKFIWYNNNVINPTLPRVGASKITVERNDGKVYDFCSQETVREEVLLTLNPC
Experimental: 4-Methylumbelliferyl oleate (4.406 mg) was accurately weighed and dissolved by Tris-HCl solution (pH 8.0, 1.3 mM NaCl, and 1.3 mM CaCl2) with the final concentration of 0.1 mM. 100 mg lipase was dissolved with deionized water and the insoluble substances were removed by centrifugation at 14,000 rpm for 10 min. Finally, the concentration of enzyme solution was 1.0 mg/mL.
Gallic acid, catechin, epicatechin, polydatin, 2,3,5,4′-tetrahydroxystilbene-2-O-β-D-glucoside, resveratrol, emodin-8-O-glucoside, physcion-8-O-glucoside, rhein, emodin, and physcion with the concentration of 1.0 mg/mL were prepared in methanol for quality control. Rhein, emodin, and physcion were dissolved in DMSO (Dimethyl Sulfoxide) with suitable concentrations. The reference standards solution was diluted serially with 10% methanol for the bioassays. The concentrations of DMSO in a series of samples at different concentrations were less than 0.1% (v/v). […] It was prepared with 10% methanol and diluted to a series of different concentrations.
(§1) The assay of lipase was performed according to previous method with slight modifications. 25 μL test samples and 25 μL lipase solution were mixed together. Then, 50 μL 4-methylumbelliferyl oleate was added to the mixture. After incubating at 25°C for 20 min, 100 μL sodium citrate (0.1 M, pH 4.2) was added to stop the reaction. Finally, the amount of 4-methylumbelliferone released by lipase was measured by microplate reader at an excitation wavelength of 355 nm and an emission wavelength of 460 nm. The inhibitory activity was calculated by the formula: inhibition (%) = [1 − (A sample/A control)] × 100, where A sample and A control were absorbance of the test sample and the control, respectively.
In the bioassay experiments, all the analysis was carried out in triplicate. All values were expressed in the form of mean ± standard deviation (SD); IC50 values were determined by Graph Pad Prism 5 software.

lipase [2] = biological target: T1, lipase; test: Lipase inhibitory activity of enriched UHPLC fractions of P. multiflorum extract and their contribution to total activity (orlistat potency units); format: biochemical; conditions: for lipase inhibitory effect of fractions of peaks: fractions of P. multiflorum extract enriched for 40 and 60 times, Figure 1; for contribution to the total lipase inhibitory activity: potency of individual fraction/total lipase inhibitory × 100%, orlistat equivalent potency units
Experimental: When the P. multiflorum extract was injected into the UHPLC system, the fraction collector (BSZ-100, Shanghai QingpuHuxi Instrument, Shanghai, China) was used for the fraction collection by setting the time interval at 20 s. Then, the fractions were collected and evaporated to dryness by nitrogen gas. The residues were reconstituted and diluted for bioassays.
as §1
The extract was injected in UHPLC for the separation of the components and all fractions were collected for the bioassays. The lipase inhibitory effect was expressed as inhibition ratio (%), which could be calculated by the above mentioned formula. The time interval of fraction collector was set at 20 s according to the resolution and peak shape in the chromatogram. […] The fractions from the same peak were combined.
The potency calibration curve was constructed by plotting the potency (y) against the corresponding inhibition ratio (x). […] Then, the potency of the enriched fractions was determined by the curve mentioned above. […] The contribution of individual fractions was calculated by the formula: contribution (%) = potency of individual fraction/the total lipase inhibitory × 100%.

[3] = read-out: IC50 (μg/mL) (converted)

Row | Compound | lipase inhibition ratio (lipase [1]) [%] | lipase inhibitory effect of fractions of peaks (lipase [2]) | IC50 (lipase [1]) [µg/mL] | contribution to the total lipase inhibitory activity (lipase [2]) | IC50 (lipase [1]; [3]) [µM]
1 | O.Oc1cc(O)c2c(c1)O[C@H](c1ccc(O)c(O)c1)[C@@H](O)C2 [Catechin] | ≤ 50 | relatively weak inhibitory effect |  |  | 
2 | Cc1cc(O[C@@H]2O[C@H](CO)[C@@H](O)[C@H](O)[C@H]2O)c2c(c1)C(=O)c1cc(O)cc(O)c1C2=O [Emodin-8-O-glucoside] |  | strong inhibition | 296.0 | less than 10% | 
3 | Cc1cc(O)c2c(c1)C(=O)c1cc(O)cc(O)c1C2=O [Emodin] |  | strong inhibition |  | less than 10% | 1290
4 | Oc1cc(O)c2c(c1)O[C@H](c1ccc(O)c(O)c1)[C@H](O)C2 [Epicatechin] | ≤ 50 | relatively weak inhibitory effect |  |  | 
5 | O=C(O)c1cc(O)c(O)c(O)c1 [Gallic acid] | ≤ 50 | relatively weak inhibitory effect |  |  | 
6 | COc1cc(O)c2c(c1)C(=O)c1cc(C)cc(OC3OC(CO)C(O)C(O)C3O)c1C2=O (stereo not shown) [Physcion-8-O-glucoside] |  | strong inhibition | 421.5 |  | 
7 | COc1cc(O)c2c(c1)C(=O)c1cc(C)cc(O)c1C2=O [Physcion] |  | strong inhibition |  | less than 10% | 2860
8 | OC[C@H]1O[C@@H](Oc2cc(O)cc(/C=C/c3ccc(O)cc3)c2)[C@H](O)[C@@H](O)[C@@H]1O [Polydatin] |  | relatively weak inhibitory effect |  |  | 
9 | Oc1ccc(/C=C/c2cc(O)cc(O)c2)cc1 [Resveratrol] |  | strong inhibition |  |  | 2470
10 | O=C(O)c1cc(O)c2c(c1)C(=O)c1cccc(O)c1C2=O [Rhein] |  | strong inhibition |  |  | 813
